Assay results reported in patent publication US20180178043A1, “FOCUSTED ULTRASOUND HYPERTHERMIA” (KING'S COLLEGE LONDON, priority 2015, published 2018).
Several values for one entry are separate records, joined by “and”; a condition that tells them apart may be missing. Equal values may be shown once. One block for each molecule: values may come before it.

Assays:
[1] = Pharmacokinetics of topotecan in blood, quantification by HPLC; format: in vivo, Balb C Mice
Protocol: Balb C Mice were injected with IgFUS-TNPs encapsulating topotecan (8 mg/kg per mouse body weight) and drug pharmacokinetics monitored by blood sample analyses. Blood samples (50-100 μL) were collected at time intervals (2 min-4 h) and transferred into pre-weighed plastic vials containing heparin (5 uL). Cold methanol (100 μL) was added to each and the mixed samples stored over dry ice or at −20° C. until required. After thawing, each vial was weighed again and the difference used to estimate then original sample volume. […] Batches of 5 samples were analysed three times using an Agilent 1100 HPLC equipped with a cooled sample chamber (8-12° C.), a guarded Thermo Hypersil 30×4.6 mm, 5 μm C18 column, a Diode Array Detector (UV/vis absorbance) and an Agilent 1260 Infinity fluorescence detector. […] Detection was by absorbance (210/254/280 nm for proteins and other biologicals; 380 nm for topotecan; all using a bandwidth of 8 nm c.p. reference at 700 nm) and fluorescence (Ex 400 nm; Em 545 nm; PMT-gain 18). Injections were 5-20 μL depending on the sample concentrations and quantifications were calculated from the fluorescence peak areas after calibration (the detector response was effectively linear over the sensitive range). Topotecan could be reliably identified even at extremely low concentrations (10-20 ng/mL) by its intrinsic fluorescence and retention time (3.33±0.03 min; N=45). […]

[2] = 7T MRI T1/T2 assessment of liposome samples and controls; format: physicochemical; parameters: r1 (relaxometry value): unit not given here; details: for T1 (s) 1param / T1 (s) 3param / T1 (s) ImageJ / T2 (s) 1param / T2 (s) ImageJ / T2 (s) 3param: 7 T
Source text: A series of MRI T1/T2 assessment studies have been carried out using a 7 T pre-clinical MRI scanner, with the assistance of Dr Po-Wah So (James Black Centre, KCL). The focus here has been to derive reliable r1/r2 relaxivities per molar Gd(III) for liposome produced using the [Gd]DOTA.DSA, [Gd]DOTA.Ahx.DSA and [Gd]DOTA.Aoc.DSA. This is reliant on both accurate measurements of the T1/T2 effects and also the exact gadolinium concentration in the prepared liposome suspensions. The extrusion and gel filtration processes make this latter hard to estimate, so Inductively Coupled Plasma Mass Spectrometry (ICP-MS) quantification is being assessed. This is turn required testing of suitable acid digestion conditions since the lipid-chelates may not be analysed directly. For both MRI and ICP-MS, commercial Gadovist is being used a positive control contrast agent of known Gd content. Assessment of temperature, buffer salt and liposome size effects on T1/T2 are also underway.
FIGS. 22 and 23 show Example T1 and T2 brightness traces for controls and liposome samples.
Comparison of liposomes containing different lipids as measured at 7T Magnet*.

[3] = 19.6 °C, conc >0.3 mM, dil not given
[4] = 19.6 °C, dil 1 (liposomes 20 mg/mL; Gadovist 3.1 or 3 mM), Gadovist 3 mM
[5] = 19.6 °C, dil 1 (liposomes 20 mg/mL; Gadovist 3.1 or 3 mM), Gadovist 3.1 mM
[6] = 35.5 °C, conc >0.3 mM, dil not given

clearance of topotecan from the blood pool ([1]; i.v. tail vein, matched concentration, followed 4 h): cleared from the blood pool in mins
fraction unbound ([1]; mouse, 'spiked' blood samples, previous results, read-out: loss of topotecan due to protein binding): 0.8 to 0.85
Structure (SMILES): CC[C@@]1(O)C(=O)OCc2c1cc1n(c2=O)Cc2cc3c(CN(C)C)c(O)ccc3nc2-1 [free topotecan, topotecan]

T1 (s) 1param [2, 3]: 2.033 s
T1 (s) 3param [2, 3]: 2.061 s
T1 (s) ImageJ [2, 3]: 2.061 s
T2 (s) 1param [2, 3]: 0.206 s
T2 (s) ImageJ [2, 3]: 0.1 s
T1 (s) 1param [2, 4]: 0.09174 s
T1 (s) 3param [2, 4]: 0.07712 s
T1 (s) ImageJ [2, 4]: 0.092 s
T2 (s) 1param [2, 4]: 0.04691 s
T2 (s) 3param [2, 4]: 0.0488 s
T2 (s) ImageJ [2, 4]: 0.047 s
T1 (s) 1param [2, 5]: 0.072 s
T1 (s) 3param [2, 5]: 0.084 s
T1 (s) ImageJ [2, 5]: 0.084 s
T2 (s) 1param [2, 5]: 0.0431 s and 0.0426 s
T2 (s) 3param [2, 5]: 0.0422 s and 0.0419 s
T2 (s) ImageJ [2, 5]: 0.042 s
T1 (s) 1param [2, 6]: 2.602 s
T1 (s) 3param [2, 6]: 2.617 s
T1 (s) ImageJ [2, 6]: 2.606 s
T2 (s) 1param [2, 6]: 0.153 s
T2 (s) ImageJ [2, 6]: 0.1 s
T1 (s) 1param ([2]; 39.5 °C, dil 1 (Gadovist 3 mM)): 0.1297 s
T1 (s) 3param ([2]; 39.5 °C, dil 1 (Gadovist 3 mM)): 0.1138 s
T1 (s) ImageJ ([2]; 39.5 °C, dil 1 (Gadovist 3 mM)): 0.13 s
T2 (s) 1param ([2]; 39.5 °C, dil 1 (Gadovist 3 mM)): 0.05335 s
T2 (s) 3param ([2]; 39.5 °C, dil 1 (Gadovist 3 mM)): 0.05578 s
T2 (s) ImageJ ([2]; 39.5 °C, dil 1 (Gadovist 3 mM)): 0.053 s
r1 (relaxometry value) ([2]; measured at 7T Magnet): 4.8
Structure (SMILES): O=C([O-])CN1CCN(CC(=O)[O-])CCN([C@H](CO)[C@H](O)CO)CCN(CC(=O)[O-])CC1.[Gd+3] (racemic) [Gadovist]
